Counter-ions that a name gives are not always drawn. Like-named read-outs stand apart in the source and are kept apart here.
Legend:
[1] = test system: human gastric cancer line SNU-16; type: in vivo; details: alone
Protocol: The day at which the grouping was carried out was defined as Day 0. TV (mm^3)=(Major axis×Minor axis^2)/2(units for the major axis and the minor axis were mm).
(§1) RTV was calculated according to the expression given below from TV values on the day of measurement and on the day of grouping. […] RTV=(TV on the day of measurement)/(TV on the day of grouping) T/C (%)=(Average RTV in each medicine administration group on the day of assessment)/(Average RTV in the control group on the day of assessment)×100

[2] = test system: human endometrial cancer line AN3CA; test: Antitumor effect of Compound 1 and gemcitabine on subcutaneously implanted AN3CA tumor in nude mouse (Example 4); type: in vivo, BALB/cAJcl-nu/nu mice; details: Day 15
Protocol: Gemcitabine was administered at 100 mg/kg/day from the tail vein at Day 1 and Day 8.

[3] = test system: human endometrial cancer line AN3CA; details: for T/C (%): Day 11
[4] = test system: human gastric cancer line SNU-16; test: Antitumor effect of Compound 1 and paclitaxel on subcutaneously implanted SNU-16 tumor in nude mouse (Example 2); details: for T/C (%): Day 15
[5] = test system: human endometrial cancer line AN3CA; test: Antitumor effect of Compound 1 and Compound 2 on subcutaneously implanted AN3CA tumor in nude mouse (Example 16); type: in vivo, BALB/cAJcl-nu/nu mice; details: alone, Day 15
Protocol: The day at which the grouping was carried out was defined as Day 0. TV(mm^3)=(Major axis×Minor axis^2)/2(units for the major axis and the minor axis were mm).
The dose of Compound 2 was set in consideration of well tolerated dose for nude mice, etc.
as §1

[6] = test system: human endometrial cancer line AN3CA; details: alone, Day 15
Protocol: An engrafted tumor was removed from the mice, chopped into fragments of 2 mm square, and then subcutaneously implanted to 6-week-old female BALB/cAJcl-nu/nu mice.
Everolimus was orally administered each day at 2 mg/kg/day for 14 days.

[7] = test system: human small cell lung cancer cell line DMS 114; test: Cell survival rate assay (CellTiter-Glo 2.0), IC50 and combination index of Compound 1 and Compound 2 (Example 15); type: cell-based; details: each medicine alone, 72 hours
Protocol: A human small cell lung cancer cell line DMS 114 was cultured using a Waymouth's medium containing 10% fetal bovine serum. The cells were maintained at 37° C. under 5% CO2 and subcultured at a ratio of 1:5 to 1:20 by 1 to 2 passages per week.
Cell survival rate was measured using CellTiter-Glo 2.0 (produced by Promega Corp.). The cells were collected by an ordinary method, then suspended in a Waymouth's medium containing 10% fetal bovine serum, and seeded in a 96-well plate. The number of cells seeded per well was set to 2000 cells/50 μL. […] In addition to groups of each medicine alone, groups of both the medicines simultaneously added were prepared in parallel. […] Cell survival rates were calculated by adding 50 μL of CellTiter-Glo 2.0 solution to each well, incubating the cells at room temperature for 15 minutes, and then measuring the chemiluminescence intensity of each well using a plate reader (FlexStation 3). The cell survival rates in medicine addition were calculated as a ratio vs. the control group (100%) according to the following equation: Cell survival rate (%)=(Chemiluminescence intensity at the time of medicine addition)/(Chemiluminescence intensity of the control group)×100
Also, Fa (fraction of affect) values were calculated by subtracting a 1/100 value of the cell survival rate from 1. […]

[8] = test system: human endometrial cancer line AN3CA; test: Apoptosis induction, CellEvent Caspase-3/7 Green Detection, Compound 1 and Compound 2 (Example 14); type: cell-based; details: Compound 1 100 nM, Compound 2 100 nM, 24 hours
Protocol: (§2) The presence or absence of induction of apoptosis by concomitant use was observed using CellEvent™ Caspase-3/7 Green Detection Reagent (Invitrogen Corp.). […] The concentration of Compound 2 was set to 100 nM. These medicines used alone (DMSO was added as a control) or concomitantly were comparatively studied. […] Apoptosis was detected by adding 6 μL of CellEvent™ Caspase-3/7 Green Detection Reagent (Invitrogen Corp.) solution per well to the cells, incubating the cells at 37° C. for 30 minutes, and then measuring cell images in the bright field and fluorescence signals, under a fluorescence microscope. The observed fluorescence signals indicate the induction of Caspase 3/7, and the amplitude of the signals represents the presence or absence of induction of apoptosis-like cell death.

[9] = test system: human endometrial cancer line AN3CA; test: Apoptosis induction, CellEvent Caspase-3/7 Green Detection, Compound 1 and MK2206 (Example 9); type: cell-based; details: Compound 1 10 nM, MK2206 dihydrochloride 300 nM (free form), 24 hours
Protocol: as §2, with “MK2206 dihydrochloride” for “Compound 2”, “300 nM (in terms of a free form).” for “100 nM.”, “1” for “6”

[10] = test system: phosphorylated AKT; test: Western blot, intracellular phosphorylation of AKT in AN3CA (Example 11); type: cell-based, human; details: Compound 1 10 and 100 nM, MK2206 dihydrochloride 5 μM
Protocol: The intracellular phosphorylation levels of ERK, AKT, mTOR and S6 were detected by Western blot method. […] Likewise, MK2206 dihydrochloride was added at a final concentration of 5 μM (in terms of a free form), and everolimus was added at a final concentration of 3 nM. Each medicine alone and each combination were studied. DMSO was added as a control at a final concentration of 0.2%. […] The amounts of phosphorylated AKT, phosphorylated ERK, phosphorylated mTOR, phosphorylated S6 and GAPDH were detected using Western blot according to an ordinary method.

[11] = test system: phosphorylated mTOR; test: Western blot, intracellular phosphorylation of mTOR in AN3CA (Example 11); type: cell-based, human; details: everolimus 3 nM alone
Protocol: The intracellular phosphorylation levels of ERK, AKT, mTOR and S6 were detected by Western blot method. […] Likewise, MK2206 dihydrochloride was added at a final concentration of 5 μM (in terms of a free form), and everolimus was added at a final concentration of 3 nM. Each medicine alone and each combination were studied. DMSO was added as a control at a final concentration of 0.2%.
Then, cell lysates were prepared using RIPA Buffer [composition: 50 mM Tris-HCl (pH 8.0), 150 mM NaCl, 5 mM EDTA, 1% (w/w) Nonidet P-40, 0.1% (w/w) sodium deoxycholate, and 0.1% (w/w) SDS]. The amounts of phosphorylated AKT, phosphorylated ERK, phosphorylated mTOR, phosphorylated S6 and GAPDH were detected using Western blot according to an ordinary method.

[12] = test system: Human lung cancer line HCC4006; details: 100 ng/mL FGF7, 72 hours
Protocol: (§3) Cell survival rates were measured using CellTiter-Glo. The cells were recovered by an ordinary method, suspended in the above medium containing 10% fetal bovine serum, and seeded in a 96-well plate. The number of cells seeded per well was set to 2000 cells/70 μL. […] In order to study effects on the activated FGF/FGFR pathway in the cells, a ligand FGF2 or FGF7 was added to the cells and compared with non-addition. […] DMSO was added to a control well, and 10 ng/mL FGF2 or 100 ng/mL FGF7 was added to the medium.
(§4) The cells were incubated at 37° C. for 72 hours under 5% CO2. Then, 100 μL of CellTiter-Glo solution was added to each well, and the cells were incubated at room temperature for 10 minutes, followed by the measurement of chemiluminescence intensity using a plate reader (ARVO). Growth inhibitory effects relative to the vehicle group were calculated from the obtained data.

[13] = test system: Human lung cancer line NCI-H1650; details: 100 ng/mL FGF7, 72 hours
Protocol: as §3, §4

[14] = Compound 1 15 mg/kg/day orally once a day for 14 days, alone

C=CC(=O)N1CC[C@H](n2nc(C#Cc3cc(OC)cc(OC)c3)c3c(N)ncnc32)C1 [Compound 1, (S)-1-(3-(4-Amino-3-((3,5-dimethoxyphenyl)ethynyl)-1H-pyrazolo[3,4-d]pyrimidin-1-yl)pyrrolidin-1-yl)prop-2-en-1-one]
T/C (%) ([1]; Compound 1 5 mg/kg/day orally once a day for 14 days, day of assessment (Day 15)): 83.6%
T/C (%) ([1]; Compound 1 15 mg/kg/day orally once a day for 14 days, Day 15): 69.0%
T/C (%) ([2]; Compound 1 15 mg/kg/day orally each day for 14 days, alone): 42.1%
T/C (%) [3, 14]: 46.0%
T/C (%) ([4]; Compound 1 5 mg/kg/day orally once a day for 14 days, alone): 83.6%
T/C (%) [4, 14]: 69.0%
T/C (%) ([5]; Compound 1 15 mg/kg/day orally once a day for 14 days): 22.1%
T/C (%) ([6]; Compound 1 15 mg/kg/day orally each day for 14 days): 33.3%
T/C (%) ([6]; Compound 1 50 mg/kg/day orally each day for 14 days): 12.6%

CC1(O)CC(N)(c2ccc(-c3nc4n(c3-c3ccccc3)COc3ccncc3-4)cc2)C1 (stereo not drawn) [Compound 2, trans-3-amino-1-methyl-3-(4-(3-phenyl-5H-imidazo[1,2-c]pyrido[3,4-e][1,3]oxazin-2-yl)phenyl)cyclobutanol]
IC50 [7]: 4.86 µM
induction of cell death (Caspase 3/7 fluorescence signals) [8]: hardly found
T/C (%) ([5]; Compound 2 4 mg/kg/day orally once a day for 14 days): 58.6%
T/C (%) ([5]; Compound 2 8 mg/kg/day orally once a day for 14 days): 55.4%

NC1(c2ccc(-c3nc4ccn5c(=O)[nH]nc5c4cc3-c3ccccc3)cc2)CCC1 [MK2206 dihydrochloride, 8-[4-(1-aminocyclobutyl)phenyl]-9-phenyl-1,2,4-triazolo[3,4-f][1,6]naphthyridin-3(2H)-one]
induction of cell death (Caspase 3/7 fluorescence signals) [9]: hardly found
AKT phosphorylation [10]: inhibited

N.N.[Cl][Pt][Cl] [cisplatin]
T/C (%) ([3]; cisplatin 7 mg/kg/day tail vein at Day 1, alone): 53.0%
body weight change of the mice ([3]; mouse, in vivo): transient decrease in body weight

CO[C@H]1C[C@@H]2CC[C@@H](C)[C@@](O)(O2)C(=O)C(=O)N2CCCC[C@H]2C(=O)O[C@H]([C@H](C)C[C@@H]2CC[C@@H](OCCO)[C@H](OC)C2)CC(=O)[C@H](C)/C=C(\C)[C@@H](O)[C@@H](OC)C(=O)[C@H](C)C[C@H](C)/C=C/C=C/C=C/1C [everolimus, reference compound]
mTOR phosphorylation [11]: inhibited
T/C (%) ([6]; everolimus 2 mg/kg/day orally each day for 14 days): 27.1%

COc1cc2ncnc(Nc3ccc(F)c(Cl)c3)c2cc1OCCCN1CCOCC1 [gefitinib]
drug effect of gefitinib on addition of the FGFR ligand FGF7 [12]: attenuated
drug effect of gefitinib on addition of the FGFR ligand FGF7 [13]: attenuated

Nc1ccn([C@@H]2O[C@H](CO)[C@@H](O)C2(F)F)c(=O)n1 [gemcitabine, reference compound]
T/C (%) ([2]; gemcitabine 100 mg/kg/day tail vein at Day 1 and Day 8, alone): 75.5%

CC(=O)O[C@H]1C(=O)[C@@]2(C)[C@H]([C@H](OC(=O)c3ccccc3)[C@]3(O)C[C@H](OC(=O)[C@H](O)[C@@H](NC(=O)c4ccccc4)c4ccccc4)C(C)=C1C3(C)C)[C@]1(OC(C)=O)CO[C@@H]1C[C@@H]2O [paclitaxel, reference compound]
body weight change of the mice ([4]; paclitaxel 60 mg/kg, concomitant use group vs each medicine group): transient decrease in body weight
T/C (%) ([4]; paclitaxel single dose 60 mg/kg/day tail vein at Day 1, alone): 12.9%
